Source: ChEMBL document CHEMBL6182948 (J Med Chem, 2025)

Assays:
[1] = species on record: Homo sapiens; experiment: Selectivity index, ratio of IC50 for human recombinant CYP1A1 to IC50 for human recombinant CYP1B1 using 7-ethoxyresorufin as substrate
[2] = species on record: Homo sapiens; experiment: Selectivity index, ratio of IC50 for human recombinant CYP1A2 to IC50 for human recombinant CYP1B1 using 7-ethoxyresorufin as substrate
[3] = target: T1, CYP2C8 (Homo sapiens, UniProt P10632); experiment: Inhibition of CYP2C8 in human liver microsome at 10 uM pre-incubated with compound for 5 mins followed NADPH addition and measured after 5 mins by LC-MS/MS analysis relative to control; type: ADME; conditions: liver microsomes, time 10 min
T1 sequence (P10632 whole entry): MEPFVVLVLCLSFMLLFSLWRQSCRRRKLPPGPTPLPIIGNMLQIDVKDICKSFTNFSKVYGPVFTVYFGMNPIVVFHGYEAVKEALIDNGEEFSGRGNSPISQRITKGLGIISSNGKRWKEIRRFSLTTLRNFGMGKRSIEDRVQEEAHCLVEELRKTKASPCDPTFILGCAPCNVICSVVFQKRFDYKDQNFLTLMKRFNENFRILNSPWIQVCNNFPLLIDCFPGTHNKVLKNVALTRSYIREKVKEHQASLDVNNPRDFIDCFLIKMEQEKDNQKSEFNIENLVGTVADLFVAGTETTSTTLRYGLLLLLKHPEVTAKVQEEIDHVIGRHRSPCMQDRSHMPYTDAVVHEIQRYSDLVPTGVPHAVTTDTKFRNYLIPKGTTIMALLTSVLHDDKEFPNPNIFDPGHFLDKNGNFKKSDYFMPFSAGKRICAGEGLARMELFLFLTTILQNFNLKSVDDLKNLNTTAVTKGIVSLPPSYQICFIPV

[4] = target: CYP2C9 (Homo sapiens, UniProt P11712); experiment: Inhibition of CYP2C9 in human liver microsome at 10 uM pre-incubated with compound for 5 mins followed NADPH addition and measured after 10 mins by LC-MS/MS analysis relative to control; type: ADME; conditions: liver microsomes, time 15 min
Sequence of CYP2C9 (P11712 whole entry): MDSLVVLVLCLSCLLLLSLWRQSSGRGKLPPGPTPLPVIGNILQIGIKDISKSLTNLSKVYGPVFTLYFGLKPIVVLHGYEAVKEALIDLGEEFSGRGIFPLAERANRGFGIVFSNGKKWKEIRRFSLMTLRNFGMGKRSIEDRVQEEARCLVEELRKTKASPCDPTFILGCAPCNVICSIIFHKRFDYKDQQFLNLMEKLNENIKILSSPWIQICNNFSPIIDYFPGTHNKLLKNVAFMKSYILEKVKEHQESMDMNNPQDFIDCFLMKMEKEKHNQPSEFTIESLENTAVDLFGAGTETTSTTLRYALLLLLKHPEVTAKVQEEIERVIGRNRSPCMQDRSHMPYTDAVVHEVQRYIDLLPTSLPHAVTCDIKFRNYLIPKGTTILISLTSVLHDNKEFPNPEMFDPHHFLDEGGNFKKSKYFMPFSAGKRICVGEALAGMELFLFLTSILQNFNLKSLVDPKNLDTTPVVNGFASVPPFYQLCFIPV

[5] = target: CYP2C19 (Homo sapiens, UniProt P33261); experiment: Inhibition of CYP2C19 in human liver microsome at 10 uM pre-incubated with compound for 5 mins followed NADPH addition and measured after 30 mins by LC-MS/MS analysis relative to control; type: ADME; conditions: liver microsomes, time 35 min
Sequence of CYP2C19 (P33261 whole entry): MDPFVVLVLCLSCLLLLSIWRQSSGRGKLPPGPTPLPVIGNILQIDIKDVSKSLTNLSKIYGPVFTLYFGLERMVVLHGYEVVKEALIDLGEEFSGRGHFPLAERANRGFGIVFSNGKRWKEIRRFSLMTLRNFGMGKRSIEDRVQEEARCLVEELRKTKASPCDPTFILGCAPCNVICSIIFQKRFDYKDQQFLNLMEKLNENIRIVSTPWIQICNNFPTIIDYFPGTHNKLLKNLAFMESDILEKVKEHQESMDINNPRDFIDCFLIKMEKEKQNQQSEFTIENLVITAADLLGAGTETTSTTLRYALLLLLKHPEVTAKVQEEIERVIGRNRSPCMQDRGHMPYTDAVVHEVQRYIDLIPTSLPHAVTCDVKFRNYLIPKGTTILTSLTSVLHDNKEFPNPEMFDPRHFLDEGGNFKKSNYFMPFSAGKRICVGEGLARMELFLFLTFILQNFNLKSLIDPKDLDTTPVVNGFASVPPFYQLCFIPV

[6] = target: Cytochrome P450 2C19 (Homo sapiens, UniProt P33261); experiment: Inhibition of CYP2C19 in human liver microsome pre-incubated with compound for 5 mins followed NADPH addition and measured after 30 mins by LC-MS/MS analysis; type: ADME, microsomes
Sequence of Cytochrome P450 2C19 (P33261 whole entry): as above

[7] = target: T2, Cytochrome P450 2C8 (Homo sapiens, UniProt P10632); experiment: Inhibition of CYP2C8 in human liver microsome pre-incubated with compound for 5 mins followed NADPH addition and measured after 5 mins by LC-MS/MS analysis; type: ADME, microsomes
T2 sequence (P10632 whole entry): T1 sequence (P10632 whole entry)

[8] = target: Cytochrome P450 2C9 (Homo sapiens, UniProt P11712); experiment: Inhibition of CYP2C9 in human liver microsome pre-incubated with compound for 5 mins followed NADPH addition and measured after 10 mins by LC-MS/MS analysis; type: ADME, microsomes
Sequence of Cytochrome P450 2C9 (P11712 whole entry): as the sequence (P11712 whole entry) above

[9] = target: Cytochrome P450 2D6 (Homo sapiens, UniProt P10635); experiment: Inhibition of CYP2D6 in human liver microsome pre-incubated with compound for 5 mins followed NADPH addition and measured after 10 mins by LC-MS/MS analysis; type: ADME, microsomes
Sequence of Cytochrome P450 2D6 (P10635 whole entry): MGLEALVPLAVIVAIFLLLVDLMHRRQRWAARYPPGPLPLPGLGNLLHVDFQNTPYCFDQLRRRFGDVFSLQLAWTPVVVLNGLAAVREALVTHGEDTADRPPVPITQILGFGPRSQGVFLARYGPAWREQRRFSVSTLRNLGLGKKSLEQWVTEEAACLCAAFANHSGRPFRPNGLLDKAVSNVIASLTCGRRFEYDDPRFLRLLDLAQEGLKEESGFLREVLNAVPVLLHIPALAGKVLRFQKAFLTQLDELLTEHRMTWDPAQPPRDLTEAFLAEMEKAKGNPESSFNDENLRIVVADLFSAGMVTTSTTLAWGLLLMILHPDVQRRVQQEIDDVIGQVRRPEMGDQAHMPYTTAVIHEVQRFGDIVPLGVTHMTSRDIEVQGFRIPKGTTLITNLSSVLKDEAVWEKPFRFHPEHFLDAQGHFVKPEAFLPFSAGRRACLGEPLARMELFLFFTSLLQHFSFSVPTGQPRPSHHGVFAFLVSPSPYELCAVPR

[10] = Cytotoxicity against human BEAS-2B cells assessed as inhibition of cell viability incubated for 48 hrs by CCK-8 assay; type: toxicity, cell-based
[11] = tested on: A549/TR; experiment: Reversal of drug resistance in human A549/Taxol cells assessed as increase in paclitaxel-induced cytotoxicity incubated for 48 hrs by CCK-8 assay; type: functional, cell-based; conditions: dose 2.5-10 µM
[12] = tested on: A549/TR; experiment: Synergistic antiproliferative activity against human A549/Taxol cells assessed as combination index at 2.5 uM in presence of 0.025 uM paclitaxel by Chou-Talalay method; type: functional
[13] = tested on: A549/TR; experiment: Synergistic antiproliferative activity against human A549/Taxol cells assessed as combination index at 2.5 uM in presence of 0.05 uM paclitaxel by Chou-Talalay method; type: functional
[14] = tested on: A549/TR; experiment: Synergistic antiproliferative activity against human A549/Taxol cells assessed as combination index at 5 uM in presence of 0.05 uM paclitaxel by Chou-Talalay method; type: functional
[15] = tested on: A549/TR; experiment: Synergistic antiproliferative activity against human A549/Taxol cells assessed as combination index at 5 uM in presence of 0.5 uM paclitaxel by Chou-Talalay method; type: functional
[16] = tested on: A549/TR; experiment: Synergistic antiproliferative activity against human A549/Taxol cells assessed as combination index at 10 uM in presence of 0.5 uM paclitaxel by Chou-Talalay method; type: functional
[17] = tested on: A549/TR; experiment: Inhibition of cell migration in human A549/Taxol cells assessed as suppression of wound closure measured after 24 hrs by scratch-wound healing assay; type: functional, cell-based; conditions: dose 2.5-5 µM
[18] = tested on: A549/TR; experiment: Inhibition of cell migration in human A549/Taxol cells assessed as wound closure at 5 uM measured after 24 hrs by scratch-wound healing assay relative to control; type: functional; design: scale not given: the % may be the effect or the level left
[19] = tested on: A549/TR; experiment: Inhibition of cell invasion in human A549/Taxol cells assessed as reduction in cell migration incubated for 24 hrs by transwell invasion assay relative to control; type: functional, cell-based; conditions: dose 2.5-10 µM
[20] = Metabolic stability in liver microsome (unknown origin) assessed as intrinsic clearance at 0.5 mg/mL measured up to 60 mins by LC-MS/MS analysis; type: ADME; conditions: liver microsomes, read-out: CLH
[21] = Stability in human plasma assessed as compound remaining at 100 uM measured after 60 mins by LC-MS/MS analysis; type: ADME, cell-free; conditions: read-out: Stability
[22] = Stability in human plasma assessed as compound remaining at 100 uM measured after 120 mins by LC-MS/MS analysis; type: ADME, cell-free; conditions: read-out: Stability
[23] = Stability in human plasma assessed as half life at 100 uM measured up to 120 mins by LC-MS/MS analysis; type: ADME, cell-free
[24] = Tmax in male Sprague-Dawley rat at 10 mg/kg, po measured up to 24 hrs by LC-MS/MS analysis; type: ADME, organism-based; conditions: in vivo
[25] = Cmax in male Sprague-Dawley rat at 10 mg/kg, po measured up to 24 hrs by LC-MS/MS analysis; type: ADME, organism-based; conditions: in vivo
[26] = AUC (0 to t) in male Sprague-Dawley rat at 10 mg/kg, po measured up to 24 hrs by LC-MS/MS analysis; type: ADME, organism-based; conditions: in vivo
[27] = AUC (0 to infinity) in male Sprague-Dawley rat at 10 mg/kg, po measured up to 24 hrs by LC-MS/MS analysis; type: ADME, organism-based; conditions: in vivo
[28] = MRT (0 to t) in male Sprague-Dawley rat at 10 mg/kg, po measured up to 24 hrs by LC-MS/MS analysis; type: ADME, organism-based; conditions: in vivo
[29] = MRT (0 to t) in male Sprague-Dawley rat at 2 mg/kg, iv measured up to 24 hrs by LC-MS/MS analysis; type: ADME, organism-based; conditions: in vivo
[30] = Apparent volume of distribution in male Sprague-Dawley rat at 2 mg/kg, iv measured up to 24 hrs by LC-MS/MS analysis; type: ADME, organism-based; conditions: in vivo, read-out: Vz
[31] = Clearance in male Sprague-Dawley rat at 2 mg/kg, iv measured up to 24 hrs by LC-MS/MS analysis; type: ADME, organism-based; conditions: in vivo

Structure (SMILES) | Ratio IC50 [1] | Ratio IC50 [2] | inhibition at 5 min, 10 µM [3] | inhibition at 10 min, 10 µM [4] | inhibition at 0.5 h, 10 µM [5] | IC50 [6] | IC50 [7] | IC50 [8] | IC50 [9] | IC50 at 48 h [10] | Activity [11] | CLint scaled [20] | remaining at 1 h, 100 µM [21] | remaining at 2 h, 100 µM [22] | half-life at 100 µM [23] | other results
O=C(Nc1cc(Cl)cc(Cl)c1)c1nc(-c2cccc(Cl)c2)cs1 | > 67500 | > 54000 | 15.7% | 2.21% | 7.73% | > 10 µM | > 10 µM | > 10 µM | > 10 µM | > 20 µM | Dose-dependent-effect | 1.1 mL/min/kg | 96.1% | 93.9% | > 2 h | CI [12]: 0.75; CI [13]: 0.08; CI [14]: 0.16; CI [15]: 0.48; CI [16]: 1.14; inhibition [17]: Dose-dependent-effect; Activity [18]: 3%; inhibition [19]: Dose-dependent-effect; Tmax [24]: 1 h; Cmax [25]: 81 ng/mL; AUC(0-t) at 24 h [26]: 236 ng·h/mL; AUC(0-inf) [27]: 239 ng·h/mL; MRT last at 24 h [28]: 2.32 h; MRT last at 24 h [29]: 0.64 h; Vd [30]: 4.77 L/kg; clearance [31]: 14.7 mL/min/kg
N#Cc1ccc(-c2csc(C(=O)Nc3cc(Cl)cc(Cl)c3)n2)cc1 | > 56400 | > 56400 | 0% | 2.21% | 1.45% | – | – | – | – | > 20 µM | Dose-dependent-effect; Compound Showed Robust Reversal Activity | – | 114% | 103% | > 2 h | –
N#Cc1ccc(-c2csc(C(=O)Nc3ccc(C(F)(F)F)cc3)n2)cc1 | 1550 | > 200000 | 33.6% | 17.4% | 60.8% | 6.45 µM | > 10 µM | > 10 µM | > 10 µM | > 20 µM | Dose-dependent-effect | 17.8 mL/min/kg | 100% | 93.4% | > 2 h | –
